Experimental data as given in patent US9566254B2, “Inhibitors and methods of inhibiting bacterial and viral pathogens” (priority 2010, dated 2017).
Counter-ions that a name gives are not always drawn. Like-named read-outs stand apart in the source and are kept apart here.

Assays:
Experiment in all cases: microbe, parasite or virus in culture
Format in all cases: cell-based
Chlamydophila caviae = conditions: read-out: Avg Activity (C. Caviae)
La Crosse virus (LACV) = conditions: read-out: Avg Activity (LACV)
dengue virus = tested on: dengue virus
vaccinia virus = conditions: read-out: Avg Activity (VV)
influenza virus = conditions: unidentified influenza virus
Tacaribe virus = conditions: Mammarenavirus tacaribeense, Vero
[1] = read-out: Misc Activity: Dengue
[2] = A549, read-out: Misc Activity: Influenza
[3] = read-out: Misc Activity: Tacaribe
[4] = read-out: Misc Virus Activity: Tacaribe
[5] = read-out: Misc Virus Activity: Dengue
[6] = A549, read-out: Misc Virus Activity: Influenza

| Molecule | EC50 (Chlamydophila caviae; Chlamydia caviae, Vero) | EC50 (La Crosse virus (LACV); La Crosse virus, Vero) | EC50 (vaccinia virus; Orthopoxvirus vaccinia) | also measured |
| --- | --- | --- | --- | --- |
| Cc1ccc(Cl)c(NC(=S)NC(=O)c2ccc(C(C)(C)C)cc2)c1 [Compound 11, 4-tert-butyl-N-[(2-chloro-5-methyl-phenyl)-carbamothioyl]benzamide] | < 1 µM | 1 to 10 µM | < 1 µM | EC50 (dengue virus; [1]): < 1 µM; EC50 (influenza virus; [2]): 1 to 10 µM |
| COc1cc(NC(=S)NC(=O)c2ccc(C(C)(C)C)cc2)ccc1N [Compound 1, N-[(4-amino-3-methoxy-phenyl)carbamothioyl]-4-tert-butyl-benzamide] | < 1 µM | < 1 µM | < 1 µM | EC50 (influenza virus; [2]): < 1 µM |
| COc1cc(NC(=S)NC(=O)c2ccc(C(C)(C)C)cc2)ccc1N [Compound 18, N-[(4-amino-3-methoxy-phenyl)carbamothioyl]-4-tert-butyl-benzamide hydrochloride] |  |  |  | EC50 (La Crosse virus (LACV); hydrochloride): 1 to 10 µM; EC50 (Tacaribe virus; [3]): < 1 µM; EC50 (dengue virus; [1]): < 1 µM; EC50 (vaccinia virus; hydrochloride): 1 to 10 µM |
| COc1cc(NC(=S)NC(=O)c2ccc(C(C)(C)C)cc2)ccc1NC(C)=O [Compound 20, N-[(4-acetamido-3-methoxy-phenyl)-carbamothioyl]-4-tert-butyl-benzamide] | < 1 µM | 1 to 10 µM | 1 to 10 µM | EC50 (Tacaribe virus; [3]): < 1 µM; EC50 (dengue virus; [1]): < 1 µM; EC50 (influenza virus; [2]): < 1 µM |
| CC(C)(C)c1ccc(C(=O)NC(=S)Nc2ccc(Nc3cccnc3)cc2)cc1 [Compound 36, 4-tert-butyl-N-[[4-(3-pyridylamino)phenyl]-carbamothioyl]benzamide hydrochloride] | < 1 µM | > 25 µM | 10 to 25 µM |  |
| CC(C)(C)c1ccc(C(=O)NC(=S)Nc2ccccc2[N+](=O)[O-])cc1 [Compound 58, 4-tert-butyl-N-[(2-nitrophenyl)carbamothioyl]-benzamide] | < 1 µM | 1 to 10 µM | 1 to 10 µM |  |
| CC(C)(C)c1ccc(C(=O)NC(=S)Nc2ccccc2)cc1 [Compound 53, 4-tert-butyl-N-(phenylcarbamothioyl)-benzamide] | < 1 µM | 1 to 10 µM | 1 to 10 µM |  |
| Cc1ccccc1NC(=S)NC(=O)c1ccc(C(C)(C)C)cc1 [Compound 42, 4-tert-butyl-N-(o-tolylcarbamothioyl)-benzamide] | < 1 µM | < 1 µM | < 1 µM |  |
| COc1cc(NC(=S)NC(=O)c2ccc(C(C)(C)C)cc2)ccc1NC(=S)c1ccccc1Cl [Compound 8, 4-tert-butyl-N-[[4-[(2-chlorobenzene-carbothioyl)amino]-3-methoxy-phenyl]-carbamothioyl]benzamide] | < 1 µM | < 1 µM | < 1 µM |  |
| N-[3-[(4-tert-butylbenzoyl)-carbamothioylamino]phenyl]-2-chloro-benzamide [Compound 74] |  |  |  | EC50 (Chlamydophila caviae): > 25 µM; EC50 (La Crosse virus (LACV)): 1 to 10 µM; EC50 (vaccinia virus): > 25 µM |
| COc1cc(NC(=S)NC(=O)c2ccc(C(C)(C)C)cc2)ccc1NC(=N)c1ccccc1Cl [Compound 24, 4-tert-butyl-N-[[4-[(2-chlorobenzene-carboximidoyl)amino]-3-methoxy-phenyl]-carbamothioyl]benzamide] | < 1 µM | 1 to 10 µM | 1 to 10 µM |  |
| Cc1c(Cl)cccc1NC(=S)NC(=O)c1ccc(C(C)(C)C)cc1 [Compound 47, 4-tert-butyl-N-[(3-chloro-2-methyl-phenyl)-carbamothioyl]benzamide] | < 1 µM | < 1 µM | 1 to 10 µM |  |
| Cc1cccc(NC(=S)NC(=O)c2ccc(C(C)(C)C)cc2)c1 [Compound 63, 4-tert-butyl-N-(m-tolylcarbamothioyl)-benzamide] | 1 to 10 µM | 1 to 10 µM | 1 to 10 µM |  |
| Cc1cccc(NC(=S)NC(=O)c2ccc(C(C)(C)C)cc2)c1C [Compound 54, 4-tert-butyl-N-[(2,3-dimethylphenyl)-carbamothioyl]benzamide] | < 1 µM | 1 to 10 µM | 1 to 10 µM |  |
| CC(C)(C)c1ccc(C(=O)NC(=S)Nc2ccc(NC(=O)c3ccccc3)cc2Cl)cc1 [Compound 7, N-[(4-benzamido-2-chloro-phenyl)carbamothioyl]-4-tert-butyl-benzamide] | < 1 µM | < 1 µM | < 1 µM |  |
| CC(C)(C)c1ccc(C(=O)NC(=S)Nc2ccc(Nc3ccccc3)cc2)cc1 [Compound 45, N-[(4-anilinophenyl)-carbamothioyl]-4-tert-butyl-benzamide] | < 1 µM | 1 to 10 µM | < 1 µM | EC50 (Tacaribe virus; [4]): < 1 µM; EC50 (dengue virus; [5]): < 1 µM; EC50 (influenza virus; [6]): < 1 µM |
| CC(C)(C)c1ccc(C(=O)NC(=S)Nc2cccc(N)c2)cc1 [Compound 17, N-[(3-aminophenyl)-carbamothioyl]-4-tert-butyl-benzamide] | < 1 µM | 1 to 10 µM | 1 to 10 µM | EC50 (Tacaribe virus; [3]): < 1 µM; EC50 (dengue virus; [1]): < 1 µM; EC50 (influenza virus; [2]): < 1 µM |

| Molecule | EC50 (Chlamydophila caviae; Chlamydia caviae, Vero) | EC50 (La Crosse virus (LACV); La Crosse virus, Vero) | EC50 (vaccinia virus; Orthopoxvirus vaccinia) | also measured |
| --- | --- | --- | --- | --- |
| Cc1cccc(C)c1NC(=S)NC(=O)c1ccc(C(C)(C)C)cc1 [Compound 71, 4-tert-butyl-N-[(2,6-dimethylphenyl)-carbamothioyl]benzamide] | < 1 µM | > 25 µM | 10 to 25 µM |  |
| CCS/C(=N\C(=O)c1ccc(C(C)(C)C)cc1)Nc1ccc(NC(=O)c2ccccc2Cl)c(OC)c1 [Compound 10, N-[4-[[(Z)—N-(4-tert-butylbenzoyl)-C-ethylsulfanyl-carbonimidoyl]amino]-2-methoxy-phenyl]-2-chloro-benzamide] | 1 to 10 µM | < 1 µM | < 1 µM |  |
| CC(C)(C)c1ccc(C(=O)NC(=S)Nc2cccc(C(F)(F)F)c2Cl)cc1 [Compound 15, 4-tert-butyl-N-[[2-chloro-3-(trifluoromethyl)phenyl]-carbamothioyl]benzamide] | < 1 µM | < 1 µM | 1 to 10 µM |  |
| CC(C)(C)c1ccc(C(=O)NC(=S)Nc2ccc(NC(=O)c3ccccc3Cl)c(O)c2)cc1 [Compound 2, N-[4-[(4-tert-butylbenzoyl)-carbamothioylamino]-2-hydroxy-phenyl]-2-chloro-benzamide] | < 1 µM | < 1 µM | < 1 µM |  |
| Cc1ccc(NC(=S)NC(=O)c2ccc(C(C)(C)C)cc2)c(C)c1 [Compound 48, 4-tert-butyl-N-[(2,4-dimethylphenyl)-carbamothioyl]benzamide] | < 1 µM | < 1 µM | 1 to 10 µM | EC50 (Tacaribe virus; [4]): < 1 µM; EC50 (dengue virus; [5]): < 1 µM; EC50 (influenza virus; [6]): 1 to 10 µM |
| CCS/C(=N\C(=O)c1ccc(C(C)(C)C)cc1)Nc1cc(C)ccc1Cl [Compound 9, (NZ)-4-tert-butyl-N-[(2-chloro-5-methyl-anilino)-ethylsulfanyl-methylene]benzamide] | < 1 µM | < 1 µM | < 1 µM |  |
| CN(C)c1ccc(NC(=S)NC(=O)c2ccc(C(C)(C)C)cc2)cc1 [Compound 49, 4-tert-butyl-N-[(4-dimethylaminophenyl)-carbamothioyl]benzamide] | 1 to 10 µM | < 1 µM | 1 to 10 µM | EC50 (Tacaribe virus; [4]): < 1 µM; EC50 (dengue virus; [5]): < 1 µM; EC50 (influenza virus; [6]): < 1 µM |
| CC(C)(C)c1ccc(C(=O)NC(=S)Nc2ccc(N)cc2)cc1 [Compound 60, N-[(4-aminophenyl)-carbamothioyl]-4-tert-butyl-benzamide] | < 1 µM | 1 to 10 µM | 1 to 10 µM |  |
| Cc1sc(NC(=S)NC(=O)c2ccc(C(C)(C)C)cc2)c(C#N)c1C [Compound 72, 4-tert-butyl-N-[(3-cyano-4,5-dimethyl-2-thienyl)-carbamothioyl]benzamide] | 10 to 25 µM | > 25 µM | 10 to 25 µM |  |
| CC(C)(C)c1ccc(C(=O)NC(=S)Nc2ccc(N)cc2Cl)cc1 [Compound 4, N-[(4-amino-2-chloro-phenyl)carbamothioyl]-4-tert-butyl-benzamide hydrochloride] | < 1 µM | < 1 µM | < 1 µM |  |
| Cc1ccc(NC(=S)NC(=O)c2ccc(C(C)(C)C)cc2)cc1 [Compound 59, 4-tert-butyl-N-(p-tolylcarbamothioyl)-benzamide] | < 1 µM | 1 to 10 µM | 1 to 10 µM |  |
| COc1cc(NC(=S)NC(=O)C2CCCCC2)ccc1NC(=O)c1ccccc1Cl [Compound 26, 2-chloro-N-[4-(cyclohexanecarbonyl-carbamothioylamino)-2-methoxy-phenyl]benzamide] | 10 to 25 µM | > 25 µM | 1 to 10 µM |  |
| CC(C)(C)c1ccc(C(=O)NC(=S)Nc2cc(C(C)(C)C)ccc2O)cc1 [Compound 46, 4-tert-butyl-N-[(5-tert-butyl-2-hydroxy-phenyl)-carbamothioyl]benzamide] | < 1 µM | 1 to 10 µM | < 1 µM |  |
| CNc1ccc(NC(=S)NC(=O)c2ccc(C(C)(C)C)cc2)c(Cl)c1 [Compound 5, 4-tert-butyl-N-[[2-chloro-4-(methylamino)phenyl]-carbamothioyl]benzamide hydrochloride] | < 1 µM | < 1 µM | < 1 µM |  |
| CC(C)(C)c1ccc(C(=O)NC(=S)Nc2cc(Cl)ccc2Cl)cc1 [Compound 50, 4-tert-butyl-N-[(2,5-dichlorophenyl)-carbamothioyl]benzamide] | < 1 µM | 1 to 10 µM | 1 to 10 µM |  |
| CCC(=O)Nc1cccc(NC(=S)NC(=O)c2ccc(C(C)(C)C)cc2)c1 [Compound 62, 4-tert-butyl-N-[[3-(propanoylamino)phenyl]-carbamothioyl]benzamide] | 1 to 10 µM | 1 to 10 µM | 1 to 10 µM |  |
